Data: patent US6268395A, “Phorbol derivatives having antivirus activity” (Lead Chemical Co., Ltd., priority 1999, dated 2001)
“And” between values parts separate entries of the source, which are not always exact repeats. Equal values may be shown once. “Also recorded” adds a separate entry of the source. Read-outs that look alike come from different tables or passages of the source.

What was measured:
[1] = system: HIV-1; experiment: Inhibition of HIV-1-induced cytopathic effect (CPE) in MT-4 cells; format: cell-based, HIV-1 (LAV-1) in human MT-4 cells; details: for IC100: Human immunodeficiency virus 1, MT4, 120 h; for CPE inhibitory effect (in words): HIV-1; for r = CC0/IC100: 7200 min; for anti-HIV-1 activity: at concentrations up to 500 μg/mL
Protocol: (§1) In the experiments, MT-4 cells were used. The cells were incubated at 37° C. under 5% CO2 in RPMI-1640 medium (FCS, Flow laboratories, North Ryde, Australia) supplemented with 100 μg/mL of streptomycin (Meiji Seika, Tokyo, Japan), and 100 U/mL of penicillin G (Banyu Pharmaceutical, Tokyo, Japan).
HIV-1 was obtained from culture supernatant of MOLT-4 cells that had been persistently infected with LAV-1.
j) Assay of cytopathic effect(CPE) of HIV-1 in MT-4 cells
(§2) The inhibitory effect of test compounds on HIV-1-induced cytopathogenicity was measured by the method of Harada, Koyanagi & Yamamoto (1985). MT-4 cells were infected for 1 hour with HIV-1 (at TCID50 of 0.001/well) and non-adsorbed virus was removed by washing. Then, the cells were resuspended in RPMI-1640 medium at a concentration of 1.5×10^5 cells/mL. A 200 μL/well of the cell suspension was cultured for 5 days in days in a 96-well culture plate containing various concentrations (12 doses, maximum 1,000 μg/mL and minimum […]) of the test compounds. Control assays were performed in the absence of test compounds with HIV-1-infected and uninfected cultures. On day 5, the IC100 of the test compound required for completely preventing HIV-1-induced CPE(IC) was determined through an optical microscope and the cell growth was examined to give the CC0 that reduces the viability of MT-4 cells.
A variety of phorbol esters and related compounds were tested for their ability to inhibit the replication and infectivity of HIV-1 in MT-4 cells, a human CD4-positive cell line continually infected with HTLV-1, and the results are presented in Table 3.

[2] = Cell growth / viability of MT-4 cells (cytotoxicity); format: cell-based; details: human, day 5, read-out: CC0 (concentration that reduces viability of MT-4 cells; minimum cytotoxic concentration)
Protocol: as §1, §2

[3] = system: protein kinase C (PKC); format: biochemical, mouse; details: for % Activity of PKC: relative to TPA positive control; for activation of PKC (in words): concentration not given; for PKC activation, positive control: TPA, lipid and calcium chloride present
Protocol: After addition of 0.55 nM [γ-^32 P] ATP (50×10^3 cpm/nmol), the reaction mixture was mixed and allowed to be kept at 37° C. for 30 minutes. Then the reactions were terminated by the addition of 10 μl of ice-cold stop reagent. Aliquots of 35 μL were transferred to the center of peptide binding discs. After 10 minutes, the discs were washed two times with 75 mM orthophosphoric acid. The activity of ^32 P-labeled samples was counted in 10/mL of a scintillation fluid for 1 minute. […] Blank (in the absence of PKC) and control (in the absence of TPA or tested samples) were also carried out. One unit of PKC was defined as that amount of enzyme, which incorporated 1 nmol of phosphate from ATP into its substrate, peptide, per minute under the assay conditions, described above.

[4] = MT-4 cells, 5 days, NE: Not effective, read-out: Anti-HIV-1 IC100 (complete prevention of HIV-1-induced CPE)
[5] = 10 ng/mL (standard concentration)
[6] = MT-4 cells, read-out: IC100 (complete inhibition of CPE)

Row | SMILES | IC100 [1, 4] | CPE inhibitory effect (in words) ([1]; MT-4 cells) | r = CC0/IC100 ([1]; MT-4 cells) | MCC at 120 h [2] | PKC activation (in words) ([3]; 10 ng to 2.7 μg/mL) | % Activity of PKC ([3]; 10 ng/mL) | % Activity of PKC ([3]; 2.7 μg/mL) | activation of PKC (in words) [3] | Anti-HIV-1 IC100 (complete prevention of HIV-1-induced CPE) ([1]; MT-4 cells, 5 days, NE: Not effective) | anti-HIV-1 activity [1] | PKC activation (in words) [3, 5] | IC100 [1, 6] | PKC activation (in words) ([3]; 100 ng/mL) | PKC activation (in words) ([3]; 10 to 100 ng/mL) | PKC activation (in words) ([3]; high concentrations) | PKC activation, positive control [3] | PKC activation, positive control ([3]; represents 100%)
1 | CO[C@]12CC(COC(C)=O)=C[C@H]3[C@@H]4C(C)(C)[C@]4(OC(C)=O)[C@H](OC(C)=O)[C@@H](C)[C@]3(O)[C@@H]1C=C(C)C2=O [Compound 16, 4-O-Methylphorbol-12,13,20-triacetate] | 31.3 µg/mL | increased in the CPE inhibitory effect | 3.99 | 125 µg/mL | no activation | 0% | 0% | no activation of PKC |  |  |  |  |  |  |  |  | 
2 | C/C=C(\C)C(=O)O[C@@H]1[C@@H](C)[C@@]2(O)[C@@H](C=C(CO)C[C@]3(O)C(=O)C(C)=C[C@@H]23)[C@@H]2C(C)(C)[C@]12OC(=O)C(C)CC (stereo partly drawn) [Compound 5, 12-O-Tigioylphorbol-13-(2-methylbutyrate)] | 31.3 µg/mL | weak inhibitory effects against CPE | 2.00 | 62.5 µg/mL |  | 10% | 40% | weak activation of PKC |  |  |  |  |  |  |  |  | 
3 | CCCCCCCCCC(=O)O[C@@H]1[C@@H](C)[C@@]2(O)[C@@H](C=C(CO)C[C@]3(O)C(=O)C(C)=C[C@@H]23)[C@@H]2C(C)(C)[C@]12OC(=O)C(C)CC (stereo partly drawn) [Compound 4, 12-O-Decanoylphorbol-13-(2-methylbutyrate)] | 7.81 µg/mL |  | 4.01 | 31.3 µg/mL | no activation | 0% | 0% | did not show any activation of PKC | 7.8 µg/mL |  |  |  |  |  |  |  | 
4 | CCCC(=O)OCC1=C[C@H]2[C@@H]3C(C)(C)[C@]3(OC(=O)CCC)[C@H](OC(=O)CCC)[C@@H](C)[C@]2(O)[C@@H]2C=C(C)C(=O)[C@]2(O)C1 [Compound 22, 4α-Phorbol-12,13,20-tributyrate] |  | showed no effect |  | 62.5 µg/mL | no activation | 0% | 0% |  |  | did not show anti-HIV-1 activity |  |  |  |  |  |  | 
5 | CCCCCCCCCCCCCC(=O)O[C@@H]1[C@@H](C)[C@@]2(O)[C@@H](C=C(COC(C)=O)C[C@]3(O)C(=O)C(C)=C[C@@H]23)[C@@H]2C(C)(C)[C@]12OC(C)=O [Compound 14, 12-O-Tetradecanoylphorbol-13,20-diacetate] | 15.6 µg/mL | dramatically decreased | 4.01 | 62.5 µg/mL |  | 0% | 30% | dramatically decreased |  |  |  |  |  |  |  |  | 
6 | CC(=O)OCC1=C[C@H]2[C@@H]3C(C)(C)[C@]3(OC(C)=O)[C@H](OC(C)=O)[C@@H](C)[C@]2(OC(C)=O)[C@@H]2C=C(C)C(=O)[C@@]2(OC(C)=O)C1 [Compound 17, Phorbol-4,9,12,13,20-pentaacetate] | 125 µg/mL |  | 2.00 | 250 µg/mL |  | 0% |  |  |  |  | did not activate PKC |  |  |  |  |  | 
7 | CC1=C[C@H]2[C@@]3(O)[C@H](C)[C@@H](OC(=O)c4ccccc4)[C@]4(OC(=O)c5ccccc5)[C@H]([C@@H]3C=C(COC(=O)c3ccccc3)C[C@]2(O)C1=O)C4(C)C [Compound 12, Phorbol-12,13,20-tribenzoate] |  | showed no effect |  | 31.3 µg/mL |  |  | 100% | enhanced the activation of PKC |  | did not show anti-HIV-1 activity |  |  |  |  |  |  | 
8 | CCCCCCCCCC(=O)O[C@@]12[C@H](OC(C)=O)[C@@H](C)[C@@]3(O)[C@@H](C=C(CO)C[C@]4(O)C(=O)C(C)=C[C@@H]34)[C@@H]1C2(C)C [Compound 6, 12-O-Acetylphorbol-13-decanoate] | 0.0076 µg/mL |  | 8220 | 62.5 µg/mL |  | 0% | 17% |  |  |  |  | 0.0076 µg/mL | No activation of PKC was observed | no activation; also recorded: did not activate PKC |  |  | 
9 | CC(=O)OCC1=C[C@H]2[C@@H]3C(C)(C)[C@]3(OC(C)=O)[C@H](OC(C)=O)[C@@H](C)[C@]2(O)[C@@H]2C=C(C)C(=O)[C@]2(O)C1 [Compound 21, 4α-Phorbol-12,13,20-triacetate] | 250 µg/mL |  | 2.00 | 500 µg/mL |  | 0% | 39% |  |  |  |  |  |  |  | enhanced activation of PKC |  | 
10 | CC(=O)OCC12CC3(O)C(=O)C1(C)C1C3C3(O)C(C)C(OC(C)=O)C4(OC(C)=O)C(C3C12)C4(C)C (stereo not drawn) [Compound 24, Lumiphorbol-12,13,20-triacetate] |  | showed no effect |  | 500 µg/mL |  | 0% | 93% |  |  | did not show anti-HIV-1 activity | no activation was observed |  |  |  | enhanced activation of PKC |  | 
11 | CC(=O)OCC1=C[C@H]2[C@@H]3C(C)(C)[C@]3(OC(C)=O)[C@H](OC(C)=O)[C@@H](C)[C@]2(O)[C@@H]2C=C(C)C(=O)[C@]2(OC(C)=O)C1 [Compound 23, 4α-Phorbol-4,12,13,20-tetraacetate] |  | showed no effect |  |  |  | 0% |  |  |  |  | did not activate PKC |  |  |  | enhanced activation of PKC |  | 
12 | C/C=C(\C)C(=O)O[C@@]12[C@H](OC(C)=O)[C@@H](C)[C@@]3(O)[C@@H](C=C(CO)C[C@]4(O)C(=O)C(C)=C[C@@H]34)[C@@H]1C2(C)C [Compound 3, 12-O-Acetylphorbol-13-tigliate] | 125 µg/mL | weak inhibitory effects against CPE | 4.00 | 500 µg/mL |  | 16% | 30% | weak activation of PKC |  |  |  |  |  |  |  |  | 
13 | CCCCCCCCCCCCCC(=O)O[C@@H]1[C@@H](C)[C@@]2(O)[C@@H](C=C(CO)C[C@]3(O)C(=O)C(C)=C[C@@H]23)[C@@H]2C(C)(C)[C@]12OC(C)=O [Compound 8, reference compound] | 0.00048 µg/mL | equipotent | 65200 | 31.3 µg/mL |  | 96% and ~100% | 98% and ~100% |  |  |  |  | 0.00048 µg/mL |  |  |  | 100% | 8400 nmol/mg/min
14 | CC1=C[C@H]2[C@@]3(O)[C@H](C)[C@@H](O)[C@]4(O)[C@H]([C@@H]3C=C(CO)C[C@]2(O)C1=O)C4(C)C [Compound 9, Phorbol] |  | did not show CPE inhibitory effect; also recorded: showed no effect |  | 1000 µg/mL |  | 8% | 39% | weak activators of PKC |  | did not show anti-HIV-1 activity |  |  |  |  |  |  | 
15 | CC1=C[C@H]2[C@@]3(O)[C@H](C)[C@@H](O)[C@]4(O)[C@H]([C@@H]3C=C(CO)C[C@@]2(O)C1=O)C4(C)C [Compound 19, 4α-Phorbol] |  | did not show CPE inhibitory effect; also recorded: showed no effect |  | 500 µg/mL |  | 1% | 5% | weak activators of PKC |  | did not show anti-HIV-1 activity |  |  |  |  |  |  | 
